US20120108636A1, “Allosteric Enhancers of th A1 Adenosine Receptor” (King Pharmaceuticals Research and Development, Inc., priority 2008, published 2012)

Assays:
[1] = biological target: T1, human A1 receptors expressed in CHO membranes (Homo sapiens, UniProt P30542); test: Allosteric enhancement of specific binding of [3H]CCPA to hCHO-A1 membranes; conditions: compound tested at 10 μM concentration
T1 construct: expressed in transfected cells; host or cells: CHO cells (hCHO-A1 clone), membrane preparation
T1 sequence (P30542 1-326): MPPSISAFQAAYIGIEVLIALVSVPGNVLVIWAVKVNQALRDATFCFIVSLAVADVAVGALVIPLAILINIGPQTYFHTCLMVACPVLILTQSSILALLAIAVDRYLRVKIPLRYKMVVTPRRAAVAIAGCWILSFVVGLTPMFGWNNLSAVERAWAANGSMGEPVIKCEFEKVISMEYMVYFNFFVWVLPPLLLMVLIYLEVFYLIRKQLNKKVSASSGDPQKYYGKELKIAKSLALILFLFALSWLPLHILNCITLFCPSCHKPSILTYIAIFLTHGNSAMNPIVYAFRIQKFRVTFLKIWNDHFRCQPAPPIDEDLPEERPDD
Method: (§1) Membrane Preparation from CHO Cells Transfected with the Human Recombinant A1, A2A and A3 Adenosine Receptors
The hCHO-A1, hCHO-A2A and hCHO-A3 cell clones are grown adherently and maintained in Dulbecco's modified Eagle's medium with nutrient mixture F12, containing 10% fetal calf serum, penicillin (100 U/mL), streptomycin (100 μg/mL), L-glutamine (2 mM), geneticine (G418) 0.2mg/mL at 37° C. in 5% CO2/95% air. 30 min at 37° C. (Klotz et al. Naunyn-Schmied. Arch Pharm. 1998, 357, 1-9). Cells are split two or three times weekly at a ratio of between 1:5 and 1:10. For membrane preparation the culture medium is removed. The cells are washed with PBS and scraped off T75 flasks in ice-cold hypotonic buffer (5 mM Tris HCl, 2 mM EDTA, pH 7.4). The cell suspension is homogenized with Polytron and the homogenate is spun for 10 min at 1,000×g. The supernatant is then centrifuged for 30 min at 100,000×g. […] The protein concentration is determined according to a Bio-Rad method (Bradford, 1976) with bovine albumin as a standard reference.
To determine the effect of the compounds of the present invention on the binding to A1, A2A and A3 receptors, membranes from hCHO-A1, hCHO-A2A, hCHO-A3 are incubated in a buffer solution in the absence and in the presence of the examined compounds. […] Bound and free radioactivity are separated by filtering the assay mixture through Whatman GF/B glass fibre filters using a Micro-mate 196 cell harvester (Packard Instrument Company). The filter bound radioactivity is counted on Top Count Microplate Scintillation Counter (efficacy 57%) with Micro-Scint 20. […]
Competition experiments are carried out in triplicate in a final volume of 250 μL in test tubes containing 1 nM [^3H]CCPA, 50 mM Tris-HCl, pH 7.4 and 100 μL of diluted membranes and at least six to eight different concentrations of the tested compounds in the range from 1 nM to 50 μM for 90 min at 25° C. […] Allosteric enhancement is measured as the action of different concentrations of the tested compounds to increase the specific binding of 1 nM [^3H]CCPA to hCHO-A1 membranes.

[2] = biological target: T1, human A1 receptors expressed in CHO membranes; test: Saturation binding of [3H]CCPA to hCHO-A1; conditions: compound tested at 10 μM concentration
Method: as §1
The hCHO-A1, hCHO-A2A and hCHO-A3 cell clones are grown adherently and maintained in Dulbecco's modified Eagle's medium with nutrient mixture F12, containing 10% fetal calf serum, penicillin (100 U/mL), streptomycin (100 μg/mL), L-glutamine (2 mM), geneticine (G418) 0.2mg/mL at 37° C. in 5% CO2/95% air. 30 min at 37° C. (Klotz et al. Naunyn-Schmied. Arch Pharm. 1998, 357, 1-9). Cells are split two or three times weekly at a ratio of between 1:5 and 1:10. For membrane preparation the culture medium is removed. The cells are washed with PBS and scraped off T75 flasks in ice-cold hypotonic buffer (5 mM Tris HCl, 2 mM EDTA, pH 7.4). The cell suspension is homogenized with Polytron and the homogenate is spun for 10 min at 1,000×g. The supernatant is then centrifuged for 30 min at 100,000×g. The membrane pellet is resuspended in 50 mM Tris HCl buffer pH 7.4 for The A1 adenosine receptors, 50 mM Tris HCl buffer pH 7.4, 10 mM MgCl2 for A2A adenosine receptors, 50 mM Tris HCl buffer pH 7.4, 10 mM MgCl2, 1 mM EDTA for A3 adenosine receptors and incubated with 3 Ul/mL of adenosine deaminase for 30 min at 37° C. The protein concentration is determined according to a Bio-Rad method (Bradford, 1976) with bovine albumin as a standard reference.
To determine the effect of the compounds of the present invention on the binding to A1, A2A and A3 receptors, membranes from hCHO-A1, hCHO-A2A, hCHO-A3 are incubated in a buffer solution in the absence and in the presence of the examined compounds. Test agents are dissolved in DMSO and added to the assay from a 100-fold concentrated solution in DMSO. Control incubations also contain 1% DMSO. Bound and free radioactivity are separated by filtering the assay mixture through Whatman GF/B glass fibre filters using a Micro-mate 196 cell harvester (Packard Instrument Company). The filter bound radioactivity is counted on Top Count Microplate Scintillation Counter (efficacy 57%) with Micro-Scint 20.
Saturation Binding of [^3H]CCPA to hCHO-A1 […]

Row | increase of the A1 specific binding of the agonist [3H]CCPA to human CHO-A1 membranes [1] | increase in the BMAX value of the agonist [3H]CCPA [2] | melting point | Compound
1 | ≤ 5.5 fold | ~6.3 fold | – | CC(C)(C)CN(Cc1c(-c2ccccc2)sc(N)c1C(=O)c1ccc(Cl)cc1)CC(C)(C)C [Example 16-9, {2-Amino-4-[(dineopentylamino)methyl]-5-phenylthiophen-3-yl}(4-chlorophenyl)methanone]
2 | ≤ 4.2 fold | ~4.6 fold | 197 to 199 °C | Nc1sc(-c2cccs2)c(CN(C2CCCCC2)C2CCCCC2)c1C(=O)c1ccc(Cl)cc1 [Example 30, {2-Amino-4-[(dicyclohexylamino)methyl]-5-(thiophen-2-yl)thiophen-3-yl}(4-chlorophenyl)methanone]
3 | up to 4.4 fold | about 3.5 fold | – | Nc1sc(-c2ccccc2)c(CN(C2CCCCC2)C2CCCCC2)c1C(=O)c1ccc(Cl)cc1 [Example 2, {2-Amino-4-[(dicyclohexylamino)methyl]-5-phenyithiophen-3-yl}(4-chlorophenyl)methanone]
